Measurements published in patent US20260376293A1, “METHODS FOR STUDYING GPR158 PHARMACOLOGY AND IDENTIFICATION OF ITS LIGANDS” (UNIVERSITY OF FLORIDA RESEARCH FOUNDATION, INCORPORATED, priority 2022, published 2026).

Legend:
[1] = test system: layer II-III pyramidal neurons of GPR158 KO mice; test: Whole cell recordings, layer II-III neurons, GPR158 KO mice; format: cell-based, mouse; conditions: for rheobase current / number of action potentials fired / resting membrane potential: 1 mM, GPR158 KO; for number of action potentials fired: 200 pA current ramp; for resting membrane potential: layer II-III
Procedure: FIGS. 14A-14H. Effect of glycine on neuronal excitability. A) Schematic of the electrophysiological recordings in slice preparation targeting mPFC neurons of layer II-III. Experiments were conducted with a cocktail of synaptic blockers: picrotoxin (100 μM) (blockade of GABAA receptor chloride channels), strychnine (1 μM) (antagonist of glycine and acetylcholine ionotropic receptors), CNQX (20 μM) (AMPA receptors antagonist), and APV (50 μM) (NMDAR antagonist). B) Representative traces of voltage responses to a 200 pA current ramp injection under control conditions and after bath application of glycine (1 mM) in WT mice. C) Quantification of changes in excitability by number of action potentials fired in response to 200 pA current ramp (n=8 neurons from 5 mice). Nonparametric t-test; Wilcoxon test, **p<0.01. D) Quantification of changes in excitability by rheobase current under control condition and glycine application (n=8 neurons from 5 mice). Nonparametric t-test; Wilcoxon test, **p<0.01. E) Representative traces of voltage responses to a 200 pA current ramp injection obtained from layer II-III pyramidal neurons in GPR158 KO mice under control conditions and during bath application of glycine (1 mM). F) Quantification of changes in excitability by number of action potentials fired in response to 200 pA current ramp (n=4 neurons/3 mice). Nonparametric t-test; Wilcoxon test, ns=p>0.05. G) Quantification of changes in excitability by rheobase current under control condition and glycine application (n=4 neurons/3 mice). Nonparametric t-test; Wilcoxon test, ns=p>0.05. H) Schematic representation of the proposed mechanism of glycine effects on mGlyR. In 14C, 14D, 14F, and 14G, solid circles (Ctrl), circles with no fill (Glycine), columns with no fill (Ctrl), and columns with dotted fill (Glycine).
FIGS. 15A-15H. Effect of glycine and taurine on excitability of layer V neurons and membrane properties of layer II/III neurons in wild type and GPR158 knockout mice. A) Representative traces of voltage responses to a 200 pA current ramp injection obtained from layer V pyramidal neurons in WT mice under control conditions and during bath application of glycine (1 mM). B) Quantification of glycine effects on neuronal excitability by number of action potentials fired in response to 200 pA current ramp under control condition and glycine application (n=4 neurons/3 mice). Nonparametric t-test; Wilcoxon test, ns=p>0.05. C) Quantification of glycine effects on neuronal excitability by rheobase current under control condition and glycine application (n=4 neurons/3 mice). Nonparametric t-test; Wilcoxon test, ns=p>0.05. D) Resting membrane potential of layer V pyramidal neurons in WT mice under control conditions and during bath application of glycine (n=4 neurons/3 mice). Nonparametric t-test; Wilcoxon test, ns=p>0.05. E) Resting membrane potential of layer II-III pyramidal neurons in WT mice under control conditions and during bath application of glycine (n=6 neurons/4 mice). Nonparametric t-test; Wilcoxon test, ns=p>0.05. F) Resting membrane potential of layer II-III pyramidal neurons in GPR158 KO mice under control conditions and during bath application of glycine (n=4 neurons/3 mice). Nonparametric t-test; Wilcoxon test, ns=p>0.05. G) Resting membrane potential under control conditions and during bath application of taurine (n=9 neurons/5 mice). Paired t-test, p=0.4809. H) Resting membrane potential under control conditions and during bath application of taurine (n=5 neurons/4 mice) Nonparametric t-test; Wilcoxon test, ns=p>0.05, p>0.9999. In FIGS. 15B, 15C, 15D, 15E, and 15F, solid circles (Ctrl), circles with angled-line fill (Glycine), columns with no fill (Ctrl), columns with angled-line fill (Glycine). In 15G and 15H, solid circles (Ctrl), circles with no fill (Taurine), columns with no fill (Ctrl), columns with dotted fill (Taurine).
FIGS. 16A-16F Effect of taurine on neuronal excitability of layer II/III neurons. […]

GlyRs = conditions: cited from earlier work

Row | Structure (SMILES) | rheobase current [1] | number of action potentials fired [1] | resting membrane potential [1] | affinity of GlyRs for glycine relative to mGlyR (GlyRs) | excitability of layer II-III neurons ([1]; Gpr158 KO, glycine 1 mM)
1 | NCCS(=O)(=O)O [taurine, 2-aminoethanesulfonic acid] | ns | ns | ns | – | –
2 | NCC(=O)O [glycine] | ns | ns | ns | an order of magnitude lower affinity | failed to alter excitability
